In patent US6436395B1, “Rosellinia subiculata ATCC 74386 and fungus ATCC 74387 for producing sordarin compounds for fungi control” (Merck & Co., Inc., priority 1996, dated 2002):

How the values were obtained:
Assay type in all cases: in vivo
Puccinia recondita [1] = assay: Action against Puccinia recondita on wheat, curative foliar spray (test b); conditions: wheat plants, 200 ppm spray 24 hours after infection (curative), evaluated after 1 day + 7 days
Description: 2. Action against Puccinia recondita on wheat b) After 1 weeks cultivation, wheat plants are infected with a spore suspension After 24 hours, the infected plants are sprayed to run off with a spray mixture (200 ppm active ingredient/20% acetone/0.25% Triton […]. Fungal attack is evaluated after incubation for 1 day at 95-100% relative humidity at 20° C. followed by 7 days at 25° C. at 50% relative humidity to determine the degree of curative activity provided by the compound.

Erysiphe graminis [2] = assay: Action against Erysiphe graminis on wheat, protectant foliar spray (test a); conditions: wheat plants, 200 ppm spray 2 hours before infection (protectant), evaluated after 8 days
Description: 1. Action against Erysiphe graminis on wheat. a) After 1 week cultivation, wheat plants are sprayed to run off with a spray mixture (200 ppm active ingredient/20% acetone/0.25% Triton […]). After 2 hours, the treated plants are infected with ascospores shaken from inoculum plants. Fungal attack is evaluated after incubation for 8 days at 22° C. at 50% relative humidity to determine the protection given by the compound.

Erysiphe graminis [3] = assay: Action against Erysiphe graminis on wheat, curative soil drench, systemic (test c); conditions: wheat plants, 200 ppm soil drench 24 hours after infection (systemic), evaluated after 8 days
Description: (§1) 1. Action against Erysiphe graminis on wheat. c) After 1 weeks cultivation, wheat plants are infected with ascospores shaken from inoculum plants. After 24 hours, the soil in which the wheat plants are growing is drenched with the drench mixture (200 ppm active ingredient/20% acetone/0.25% Triton […]). Fungal attack is evaluated after incubation for 8 days at 22° C. at 50% relative humidity to determine the degree of curative activity provided by the compound.

Puccinia recondita [4] = assay: Action against Puccinia recondita on wheat, protectant foliar spray (test a); conditions: wheat plants, 200 ppm spray 2 hours before infection (protectant), evaluated after 1 day + 7 days
Description: 2. Action against Puccinia recondita on wheat a) After 1 weeks cultivation, wheat plants sprayed to run off with a spray mixture (200 ppm active ingredient/20% acetone/0.25% Triton […]). After 2 hours, the treated plants are infected with a spore. Fungal attack is evaluated after incubation for 1 day at 95-100% relative humidity at 20° C. followed by 7 days at 25° C. at 50% relative humidity to determine the protection given by the compound.

Erysiphe graminis [5] = assay: Action against Erysiphe graminis on wheat, curative foliar spray (test b); conditions: wheat plants, 200 ppm spray 24 hours after infection (curative), evaluated after 8 days
Description: as §1, with “b)” for “c)”, “the” for “the soil in which the”, “sprayed” for “growing is drenched”, “a spray” for “the drench”, “ingredient/ 20%” for “ingredient/20%”

Puccinia recondita [6] = assay: Action against Puccinia recondita on wheat, curative soil drench, systemic (test c); conditions: wheat plants, 200 ppm soil drench 24 hours after infection (systemic), evaluated after 1 day + 7 days
Description: 2. Action against Puccinia recondita on wheat c). After 1 weeks cultivation, wheat plants are infected with a spore suspension After 24 hours, the soil in which the wheat plants are growing was drenched with the drench mixture (200 ppm active ingredient/20% acetone/0.25% Triton […]). Fungal attack is evaluated after incubation for 1 day at 95-100% relative humidity at 20° C. followed by 7 days at 25° C. at 50% relative humidity to determine the degree of curative activity provided by the compound.

Measured: control of fungal infection

CO[C@H]1[C@@H](O)[C@H](O)[C@H](OC[C@@]23C[C@@H]4[C@H](C)CC[C@H]4[C@@]4(C=O)CC2C=C(C(C)C)[C@@]34C(=O)O)O[C@@H]1C [sordarin, Sordarin]
100%: all assays above
